# From patent US20110144014A1, “CYTOKINE RECEPTOR MODULATORS AND USES THEREOF” (CENTRE HOSPITALIER UNIVERSITAIRE SAINTE-JUSTINE, priority 2005, published 2011)
# Columns and labels:
# IL-1R/IL-1RacP = assay: IL-1-induced PGE2 synthesis in endothelial cells; format: cell-based, porcine
# Experimental: Efficiencies and inhibitory activities of the mutated peptides were determined by measuring the inhibition of IL-1-induced PGE2 synthesis. […] All peptides were tested at concentration 10^−6M.
# The arginine of API-101.10 (SEQ ID NO: 10) was replaced by citrulline—to change from a guanidine to a urea group near the N-terminal. Other mutations (e.g. E to Q in API-101.102 and API-101.103) and a truncated peptide at the C-terminal (API-101.108) were also performed to improve the potency and the efficacy of the peptides. Measurement of PGE2 was performed with piglet brain microvessel endothelial cells and WI-38 human fibroblasts. Some of the mutations were advantageous and gave major increases in potency.
# IL-1-induced PGE2 synthesis assay on endothelial cells was used as a screening assay for the peptidomimetics.
# IL-1R = molecular target: T1, IL-1R (Homo sapiens, UniProt P14778); assay: IL-1R antagonist activity, structure vs. activity text, assay not stated
# T1 sequence (P14778 18-569): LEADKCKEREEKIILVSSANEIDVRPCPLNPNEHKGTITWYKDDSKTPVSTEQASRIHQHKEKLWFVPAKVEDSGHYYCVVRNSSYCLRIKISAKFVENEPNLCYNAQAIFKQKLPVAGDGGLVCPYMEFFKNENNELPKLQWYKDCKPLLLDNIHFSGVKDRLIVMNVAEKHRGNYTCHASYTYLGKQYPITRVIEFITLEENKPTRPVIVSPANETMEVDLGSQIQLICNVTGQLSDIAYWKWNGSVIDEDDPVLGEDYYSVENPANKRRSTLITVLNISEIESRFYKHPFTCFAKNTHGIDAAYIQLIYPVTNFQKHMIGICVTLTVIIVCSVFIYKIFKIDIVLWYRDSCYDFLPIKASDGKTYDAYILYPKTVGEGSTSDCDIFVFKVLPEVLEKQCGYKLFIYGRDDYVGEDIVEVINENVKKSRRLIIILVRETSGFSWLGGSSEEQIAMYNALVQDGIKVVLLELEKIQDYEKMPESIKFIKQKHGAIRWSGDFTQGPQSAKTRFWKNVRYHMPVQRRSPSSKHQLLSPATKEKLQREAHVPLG
# T1 sequence (Q9NPH3 21-570 partner): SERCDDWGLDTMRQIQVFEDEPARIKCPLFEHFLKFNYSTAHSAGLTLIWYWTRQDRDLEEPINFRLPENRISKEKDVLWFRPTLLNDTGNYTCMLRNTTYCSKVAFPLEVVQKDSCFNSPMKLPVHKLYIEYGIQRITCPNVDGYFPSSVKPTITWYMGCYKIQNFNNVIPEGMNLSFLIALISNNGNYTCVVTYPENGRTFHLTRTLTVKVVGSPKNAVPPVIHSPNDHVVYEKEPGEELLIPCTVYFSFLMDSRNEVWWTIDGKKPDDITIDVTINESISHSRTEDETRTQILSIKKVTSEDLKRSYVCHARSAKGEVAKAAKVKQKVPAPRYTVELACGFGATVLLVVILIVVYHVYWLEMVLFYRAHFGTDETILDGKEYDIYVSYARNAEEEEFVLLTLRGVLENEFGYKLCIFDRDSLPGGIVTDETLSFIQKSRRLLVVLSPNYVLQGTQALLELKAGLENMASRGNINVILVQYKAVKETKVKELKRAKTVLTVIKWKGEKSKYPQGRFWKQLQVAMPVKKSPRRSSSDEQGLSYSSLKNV
smiles,measurement,setting,value
"CC(C)C[C@@H](NC(=O)[C@@H](CCC(=O)O)NC(=O)[C@H]1CC[C@H]2CC[C@@H](NC(=O)[C@@H](Cc3ccc(O)cc3)NC(=O)[C@H](N)CCCNC(=N)N)C(=O)N21)C(=O)N[C@H](C)C(N)=O [API-101.110, RY(I^2aa)ELA]",efficacy relative to API-101.107,IL-1R/IL-1RacP,twice the efficacy
same,potency relative to API-101.107,IL-1R/IL-1RacP,10 fold
same,IC50,IL-1R,0.01 nM
